# “Also recorded” adds a separate entry of the source.
# Experiments:
# [1] = tested on: human retinal pigment epithelial (RPE) cells deficient in 15-LOX-D1; assay: Oxidative stress (OS) induced apoptosis / cell death in 15-LOX-1-deficient human RPE cells; format: cell-based
# Excerpt: (§1) FIG. 4. (A) Cytoprotective effects of NPD1 like compounds on OS induced apoptosis. The results shown in this figure compare the cytoprotective capacities of long chain polyunsaturated fatty acids (VLC-PUFA), elovanoids ELV1 and ELV2, and neuroprotectin D1 (NPD1) in human retinal pigment epithelial (RPE) cells deficient in 15-LOX-D1 by measuring the protection of cell deaths induced by oxidative stress (OS) by these compounds. […] (B) Elovanoid precursors protect human retinal pigment epithelial cells deficient in 15-LOX-1, unlike DHA, from oxidative stress conditions.
# (§2) FIG. 5. (A) Effect of PD146176 on VLC-PUFA-inhibited apoptosis induced by OS in ARPE-19 cells. […] It is evident that 32:6 and 34:6 LCAF were able to induce a substantial amount (55 and 48% respectively) of neuroprotection compared to PD 146176 (22%) when the stressed cells were treated with 5 μm of 15-LOX-D1 inhibitor. It can be concluded that since PD146176 is the inhibitor of 15-lipooxygenase enzyme, it might be protecting the stressed RPE cells by accumulating neuroprotective agents inside the cells. (B) Comparison of cytoprotective capacities of NPD1, C32:6 and C34:6 VLC-PUFA on oxidative stress-induced apoptosis in 15-LOX-1 cells. Shown here is the comparison of neuroprotection in a 15-LOX-1-deficient cell line under oxidative stress with 32:6 and 34:6 VLC-PUFA along with NPD1. 32:6 and 34:6 LCAF were able to induce neuroprotection (45% and 40% respectively), as compared to oxidative stress (90%) under this condition. (C) Concentration dependent cytoprotection by C32:6 and C34:6 VLC-PUFA in oxidative-stress induced ARPE-19 cells. A concentration (50-500 nM) kinetic of cytoprotection induced by LCAF 32:6 and 34:6 in RPE cell culture under OS was shown here. […] We decided to use 250 nM concentrations of 32:6 and 34:6 LCAF in subsequent experiments. (D) Selected images of alive and dead cells from this study (control, OS, treatment with C32:6).
# as §1, with “Evidence of cytoprotection by 32.6 and 34.6 VLC-PUFA in oxidative-stress induced ARPE-19 cells as detailed in (FIG. 4): (A) Cytoprotective” for “FIG. 4. (A) Cytoprotective”, “capacities of very long chain” for “capacities of long chain”
# FIG. 5—(A) Effect of PD146176 on VLC-PUFA inhibited apoptosis induced by OS in ARPE-19 cells. […] It is evident that 32:6 and 34:6 LCAF were able to induce a substantial amount (55 and 48% respectively) of neuroprotection compared to PD 146176 (22%) when the stressed cells were treated with 5 μm of 15-LOX-D1 inhibitor. It can be concluded that since PD146176 is the inhibitor of 15-lipooxygenase enzyme, it might be protecting the stressed RPE cells by accumulating neuroprotective agents inside the cells. (B) Comparison of cytoprotective capacities of NPD1, C32:6 and C34:6 VLC-PUFA on oxidative stress-induced apoptosis in 15-LOX-1 cells. Shown here is the comparison of neuroprotection in a 15-LOX-1-deficient cell line under oxidative stress with 32:6 and 34:6 VLC-PUFA along with NPD1. 32:6 and 34:6 VLC-PUFA were able to induce neuroprotection (45% and 40% respectively), as compared to oxidative stress (90%) under this condition. (C) Concentration dependent cytoprotection by C32:6 and C34:6 VLC-PUFA in oxidative-stress induced ARPE-19 cells. A concentration (50-500 nM) kinetic of cytoprotection induced by VLC-PUFA 32:6 and 34:6 in RPE cell culture under OS was shown here. […] We decided to use 250 nM concentrations of 32:6 and 34:6 VLC-PUFA in subsequent experiments. […]
# [2] = tested on: neuronal cells in primary cultures; assay: NMDA-induced toxicity in neuronal cells in primary culture, MTT assay for cell viability; format: cell-based; conditions: MK-801 with ELV2; NMDA receptor blocker used as control
# Excerpt: FIG. 11. […] In several neurological and neurodegenerative diseases, such as stroke, epilepsy, status epilepticus, traumatic head injury, etc., as well as ophthalmological diseases, such as glaucoma, an excessive presynaptic release of the excitatory neurotransmitter glutamate takes place. As a consequence, glutamate transporters that function to remove extracellular glutamate from astrocytes and neurons are overwhelmed and the NMDA-type glutamate receptor is over-activated. This receptor is a calcium channel that therefore leads to a flooding of calcium into the postsynaptic cell. The overall phenomena is refer to as excitotoxicity that in turn leads to neuronal damage and cell death. MK801 is a known blocker of this receptor used here as a control.
# In several neurological and neurodegenerative diseases, such as stroke, epilepsy, status epilepticus, traumatic head injury, etc., as well as ophthalmological diseases, such as glaucoma, an excessive presynaptic release of the excitatory neurotransmitter glutamate takes place. As a consequence, glutamate transporters that function to remove extracellular glutamate from astrocytes and neurons are overwhelmed and the NMDA-type glutamate receptor is over-activated. This receptor is a calcium channel that therefore leads to a flooding of calcium into the postsynaptic cell. The overall phenomena is refer to as excitotoxicity that in turn leads to neuronal damage and cell death. MK801 is a known blocker of this receptor used here as a control.
# ischemic stroke (MCAo) = assay: Ischemic stroke model, 2 h MCAo, neurological score during 7 days; format: in vivo; conditions: rat; for activity relative to DHA and NPD1, neurological score (FIG. 12): one hour after 2 h MCAo, 7 days; for in vivo neuroprotective effect (FIG. 12): ICV after 2 hours of MCAo
# Description: FIG. 12. […] To test the novel elovanoids the experimental design consisted injecting the compounds into the right cerebral ventricle (5 μg/per rat, ICV), one hour after two hours of an ischemic stroke in rats and following thereafter the neurological behavior (neurological score) during 7 days. The protocol in brief was as follows. The injection was made through a surgically implanted metal canula (Alzet) into the right lateral ventricle. Two days later the right middle cerebral artery (MCA) was occluded for 2 h by means of an intraluminal nylon filament (Belayev et al, Traslational Stroke Research, 2010). Then one hour after the compounds were injected dissolved in sterile cerebrospinal fluid. The occlusion was transient performed as follows. The right common carotid artery was exposed through an incision in the neck and was isolated from surrounding tissues. The distal external carotid artery and pterygopalatine arteries were tied. A 4-cm of 3-0 monofilament nylon suture coated with poly-Lysine was introduced into the internal carotid artery and MCA. The suture position was confirmed by advancing the suture 20-22 mm from the common carotid artery bifurcation. Then, the rats were allowed to awaken from anesthesia and returned to their cages. The degree of stroke injury was assessed by neurological assessment of each rat at 60 min after onset of MCAo. […] After 2 hours of MCA occlusion, the rats were re-anesthetized temperature probes were reinserted and the intraluminal suture was removed. The neck incision was closed with silk sutures, and the animals were allowed free access to food and water. […] The methyl ester ELV2-Me is expected to first be hydrolyzed via the actions of esterases, and it may have a more delayed effect, which may be beneficial for a sustainable long-term treatment.
# To test the novel elovanoids the experimental design consisted injecting the compounds into the right cerebral ventricle (5 μg/per rat, ICV), one hour after two hours of an ischemic stroke in rats and following thereafter the neurological behavior (neurological score) during 7 days. The protocol in brief was as follows. The injection was made through a surgically implanted metal canula (Alzet) into the right lateral ventricle. Two days later the right middle cerebral artery (MCA) was occluded for 2 h by means of an intraluminal nylon filament (Belayev et al, Traslational Stroke Research, 2010). Then one hour after the compounds were injected dissolved in sterile cerebrospinal fluid. The occlusion was transient performed as follows. The right common carotid artery was exposed through an incision in the neck and was isolated from surrounding tissues. The distal external carotid artery and pterygopalatine arteries were tied. A 4-cm of 3-0 monofilament nylon suture coated with poly-Lysine was introduced into the internal carotid artery and MCA. The suture position was confirmed by advancing the suture 20-22 mm from the common carotid artery bifurcation. Then, the rats were allowed to awaken from anesthesia and returned to their cages. The degree of stroke injury was assessed by neurological assessment of each rat at 60 min after onset of MCAo. […] After 2 hours of MCA occlusion, the rats were re-anesthetized temperature probes were reinserted and the intraluminal suture was removed. The neck incision was closed with silk sutures, and the animals were allowed free access to food and water. […]
# ARPE-19 cells = assay: Oxidative stress induced apoptosis / cell death in ARPE-19 cells; format: cell-based, human; conditions: stressed ARPE-19 cells treated with 5 μm of 15-LOX-D1 inhibitor PD146176
# Description: as §2
# FIG. 5—(A) Effect of PD146176 on VLC-PUFA inhibited apoptosis induced by OS in ARPE-19 cells. […] It is evident that 32:6 and 34:6 LCAF were able to induce a substantial amount (55 and 48% respectively) of neuroprotection compared to PD 146176 (22%) when the stressed cells were treated with 5 μm of 15-LOX-D1 inhibitor. It can be concluded that since PD146176 is the inhibitor of 15-lipooxygenase enzyme, it might be protecting the stressed RPE cells by accumulating neuroprotective agents inside the cells. (B) Comparison of cytoprotective capacities of NPD1, C32:6 and C34:6 VLC-PUFA on oxidative stress-induced apoptosis in 15-LOX-1 cells. Shown here is the comparison of neuroprotection in a 15-LOX-1-deficient cell line under oxidative stress with 32:6 and 34:6 VLC-PUFA along with NPD1. 32:6 and 34:6 VLC-PUFA were able to induce neuroprotection (45% and 40% respectively), as compared to oxidative stress (90%) under this condition. (C) Concentration dependent cytoprotection by C32:6 and C34:6 VLC-PUFA in oxidative-stress induced ARPE-19 cells. A concentration (50-500 nM) kinetic of cytoprotection induced by VLC-PUFA 32:6 and 34:6 in RPE cell culture under OS was shown here. […] We decided to use 250 nM concentrations of 32:6 and 34:6 VLC-PUFA in subsequent experiments. (D) Selected images of alive and dead cells from this study (control, OS, treatment with C32:6).
structure (smiles),measurement,setting,value
"CC/C=C\C[C@H](O)\C=C/C=C/C=C/[C@H](O)C/C=C\C/C=C\CCC(=O)O [NPD1, 10R,17S-dihydroxy-docosa-4Z,7Z,11E,13E,15Z,19Z-hexaenoic acid, reference compound]",protection of cell deaths induced by oxidative stress (FIG. 4A),"[1]; 15-LOX-1-deficient human RPE cells, compared to OS (90%)",60%
same,protection against cell death under oxidative stress conditions (FIG. 4B),[1]; 15-LOX-D1 cells under oxidative stress,protect against cell death
"C[C@]12N[C@H](Cc3ccccc31)c1ccccc12 [MK-801, reference compound]","effect of MK-801 on protection, MTT assay for cell viability (FIG. 11B)",[2],potentiates protection
"CC/C=C\C[C@H](O)\C=C/C=C/C=C/[C@H](O)C/C=C\C/C=C\CCCCCCCCCCCCCCC(=O)O [ELV2-Na, sodium (16Z,19Z,22R,23E,25E,27Z,29S,31Z)-22,29-dihydroxytetratriaconta-16,19,23,25,27,31-hexaenoate]",potency of sodium salt versus methyl ester in stroke model (FIG. 12),ischemic stroke (MCAo); 5 μg/per rat ICV,greater potency
same,"activity relative to DHA and NPD1, neurological score (FIG. 12)",ischemic stroke (MCAo); 5 μg/per rat ICV,more active than DHA and NPD1; also recorded: greater in vivo potency than DHA or NPD1
same,in vivo neuroprotective effect (FIG. 12),ischemic stroke (MCAo),potent in vivo neuroprotective effects
"CC/C=C\C[C@H](O)\C=C/C=C/C=C/[C@H](O)C/C=C\C/C=C\CCCCCCCCCCCCCCC(=O)OC [ELV2-Me, methyl (16Z,19Z,22R,23E,25E,27Z,29S,31Z)-22,29-dihydroxy-tetratriaconta-16,19,23,25,27,31-hexaenoate]","activity relative to DHA and NPD1, neurological score (FIG. 12)",ischemic stroke (MCAo); 5 μg/per rat ICV,more active than DHA and NPD1; also recorded: greater in vivo potency than DHA or NPD1
same,in vivo neuroprotective effect (FIG. 12),ischemic stroke (MCAo),potent in vivo neuroprotective effects
"c1ccc2c(c1)SCc1c-2[nH]c2ccccc12 [PD 146176, reference compound]",neuroprotection (FIG. 5A),ARPE-19 cells,22%

# — patent US12565467B2, “Compounds, compositions, and methods for the treatment of inflammatory, degenerative, and neurodegenerative diseases” (Board of Supervisors of Louisiana State University and …, priority 2015, dated 2026)
